{"source": "patent US20240016773A1", "about": "“COMPOSITIONS AND METHODS FOR DIAGNOSIS AND TREATMENT OF CONDITIONS RELATED TO AGING” (EPITRACKER, INC., priority 2018, published 2024)", "key": {"[1]": {"tested_on": "BT system: peripheral blood mononuclear cells, B cells (α-IgM, TCR ligands)", "test": "BioMAP Diversity PLUS, BT system", "assay_type": "cell-based, human", "excerpt": "(§1) The Diversity PLUS panel allows test agent characterization in an unbiased way across a broad set of systems modeling various human disease states. These systems are designed to model complex human tissue and disease biology of the vasculature, skin, lung, and inflammatory tissues. Quantitative measurements of 148 biomarker activities across this broad panel, along with comparative analysis of biological activities from known bioactive agents, were used to predict and compare the efficacy and function of each selected compound at four concentrations (740 nm and 2.2, 6.7 and 20 μM).\n(§2) BioMAP systems are constructed with one or more primary cell types from healthy human donors, with stimuli (such as cytokines or growth factors) added to capture relevant signaling networks that naturally occur in human tissue or pathological conditions. Vascular biology is modeled in both a Th1 (3C system) and a Th2 (4H system) inflammatory environment, as well as in a Th1 inflammatory state specific to arterial smooth muscle cells (CASM3C system). Additional systems recapitulate aspects of the systemic immune response including monocyte-driven Th1 inflammation (LPS system) or T cell stimulation (SAg system), chronic Th1 inflammation driven by macrophage activation (lMphg system) and the T cell-dependent activation of B cells that occurs in germinal centers (BT system). The BE3C system (Th1) and the BF4T system (Th2) represent airway inflammation of the lung, while the MyoF system models myofibroblast-lung tissue remodeling. Lastly, skin biology is addressed in the KF3CT system modeling Th1 cutaneous inflammation and the HDF3CGF system modeling wound healing.\n(§3) Each test agent generates a signature BioMAP profile that is created from the changes in protein biomarker readouts within individual system environments. Biomarker readouts (7-17 per system) are selected for therapeutic and biological relevance, are predictive for disease outcomes or specific drug effects and are validated using agents with known mechanism of action (MoA). Each readout is measured quantitatively by immune-based methods that detect protein (e.g., ELISA) or functional assays that measure proliferation and viability. BioMAP readouts are diverse and include cell surface receptors, cytokines, chemokines, matrix molecules and enzymes. In total, the Diversity PLUS panel contains 148 biomarker readouts that capture biological changes that occur within the physiological context of the particular BioMAP system. Specific BioMAP activities have been correlated to in vivo biology, and multiparameter BioMAP profiles have been used to distinguish compounds based on MoA and target selectivity across diverse physiological systems.\n(§4) Activated BioMAP systems were incubated with each compound for 24 to 72 hours. Protein-based biomarkers from activated cell systems were measured and compared with non-treated control systems."}, "[2]": {"tested_on": "Primary endothelial cells stimulated with IL-1β, TNF-α, and IFNγ", "test": "Second cell-based system: Th1 inflammatory and prothrombotic environment", "design": "species or system human", "experimental": "This study examined the impact of synthetic pentadecanoic acid (C15:0) at four concentrations (740 nm and 2.2, 6.7, and 20 μM) on three primary human cell-based activity systems that were exposed to agents that mimicked allergic, thrombotic, and fibrotic disease states. In general, protein-based biomarkers in these systems were measured and compared with controls. Pentadecanoic acid was considered ‘active’ when 2 or more consecutive concentrations changed a given biomarker in the same direction relative to vehicle controls, were outside of the significance envelope of internal controls, and had at least one concentration with an effect size greater than 20% (log 10 ratio >0.1).\nThe second cell-based system recapitulated a Th1 inflammatory and prothrombotic environment. Primary endothelial cells were stimulated with IL-1β, TNF-α, and IFNγ and incubated with pentadecanoic acid for 24 hours. In addition to controls that were not treated with pentadecanoic acid, a negative, non-stimulated system was also included. Urokinase plasminogen activator receptor (uPAR) activation in this system was measured and compared with controls."}, "[3]": {"tested_on": "obese mouse model (C57BL/6J mice fed a high fat diet)", "test": "High fat diet obese mouse model, daily oral pentadecanoic acid", "assay_type": "in vivo", "experimental": "This study examined the impact of daily oral administration of synthetic pentadecanoic acid (C15:0) on total and LDL cholesterol in an obese mouse model. Twenty C57BL/6J mice were fed a high fat diet (HFD) (D12492, 60% kcals fat) for 8 weeks. Study mice were then divided into the following two groups of ten: vehicle controls and pentadecanoic acid—treated (5 mg/kg body weight). The test article was a synthetic powder form stable at room temperature and purchased from Sigma-Aldrich (Products W433400 (≥99% C15:0). The test article was provided daily via gastric gavage for 12 weeks (84 days) while continuing ad libitum access to the HFD. Total cholesterol and low-density lipoprotein (LDL) cholesterol were measured at Day 0 and Day 84. Data from the treated group were compared to the control group using Wilcoxon rank sum analyses. Significance was defined as a P value less than or equal to 0.05."}, "[4]": {"tested_on": "New Zealand white rabbits fed a high fat diet", "test": "High fat diet-fed New Zealand white rabbit model, daily pentadecanoic acid in diet", "assay_type": "in vivo", "experimental": "This study examined the impact of daily oral administration of synthetic pentadecanoic acid (C15:0) on serum globulins, cholesterol, and liver fibrosis in an animal model fed a high fat diet. Sixteen New Zealand white rabbits were fed a high fat diet (HFD) (4% peanut oil and 0.5% cholesterol) for 2 weeks. Study rabbits were then divided into the following two groups of eight: high fat diet controls, and high fat diet animals treated with pentadecanoic acid (35 mg/kg body weight). The test article was a synthetic powder form stable at room temperature and purchased from Sigma-Aldrich (Products W433400 (≥99% pentadecanoic acid). The test article was provided daily in the diet for 11 weeks (77 days) while continuing ad libitum access to the HFD. Total cholesterol, platelets, and globulins were measured at Days 0 and 77.\nOn Day 77, liver tissues from HFD controls and pentadecanoic acid-treated animals were collected and scored histologically for fibrosis by a board-certified veterinary pathologist. Liver tissues were processed into paraffin-embedded blocks for H&E and picrosirius red staining for fibrosis (collagen deposition). Whole picrosirius red stained liver slides were scanned using Aperio ScanScope AT2 at 20×. Fibrosis stages were defined as follows: 0=none, 1=persinusoidal or periportal, 2=perisinusoidal and portal/periportal, 3=bridging fibrosis, 4=cirrhosis. Data from the treated group were compared to the control group using Wilcoxon rank sum analyses. Significance was defined as a P value less than or equal to 0.05."}, "[5]": {"tested_on": "SAg system: venular endothelial cells, peripheral blood mononuclear cells (TCR ligands)", "test": "BioMAP Diversity PLUS, SAg system", "assay_type": "cell-based, human", "excerpt": "as §1, §2, §3, §4"}}, "data": [{"smiles": "CCCCCCCCCCCCCCC(=O)O", "note": "[Pentadecanoic acid, pentadecanoic acid]", "values": [{"measurement": "Significant log10 reduction vs nontreated controls: Secreted interleukin 17A (IL-17A)", "setting": "[1]; 2.2 μM", "value": "−0.25", "unit": "log10"}, {"measurement": "Significant log10 reduction vs nontreated controls: Secreted interleukin 17F (IL-17F)", "setting": "[1]; 2.2 μM", "value": "−0.16", "unit": "log10"}, {"measurement": "Significant log10 reduction vs nontreated controls: Secreted immunoglobulin G (IgG)", "setting": "[1]; 6.7 μM", "value": "−0.17", "unit": "log10"}, {"measurement": "Significant log10 reduction vs nontreated controls: Secreted immunoglobulin G (IgG)", "setting": "[1]; 20.0 μM", "value": "−0.55", "unit": "log10"}, {"measurement": "Significant log10 reduction vs nontreated controls: Secreted interleukin 6 (IL-6)", "setting": "[1]; 20.0 μM", "value": "−0.29", "unit": "log10"}, {"measurement": "Significant log10 reduction vs nontreated controls: Secreted interleukin 17A (IL-17A)", "setting": "[1]; 20.0 μM", "value": "−0.29", "unit": "log10"}, {"measurement": "Significant log10 reduction vs nontreated controls: Secreted interleukin 17F (IL-17F)", "setting": "[1]; 20.0 μM", "value": "−0.18", "unit": "log10"}, {"measurement": "uPAR (FIG. 3)", "setting": "[2]; 24 hours incubation, 6.7 μM and 20 μM bioactive, vs controls", "value": "increases"}, {"measurement": "Cytotoxicity", "setting": "[2]; all four concentrations (740 nm and 2.2, 6.7, and 20 μM)", "value": "non-cytotoxic"}, {"measurement": "Tolerability of test article", "setting": "[3]; 5 mg/kg daily gavage, 12 weeks, HFD mice", "value": "tolerated the test article throughout the study"}, {"measurement": "Total Cholesterol", "setting": "[3]; Index at Day 84, 5 mg/kg dose daily via gastric gavage for 12 weeks, HFD mice, P 0.032 vs HFD control", "value": "183 + 25 mg/dl"}, {"measurement": "LDL Cholesterol", "setting": "[3]; Index at Day 84, 5 mg/kg dose daily via gastric gavage for 12 weeks, HFD mice, P 0.036 vs HFD control", "value": "6.3 ± 3.6", "unit": "mg/dL"}, {"measurement": "Percent body weight gain compared to control mice on high fat diet alone", "setting": "[3]; oral daily for 12 weeks, obese mice on high fat diet", "value": "lower percent body weight gain"}, {"measurement": "Early mortalities", "setting": "[3]; treated group, 5 mg/kg daily gavage, 12 weeks", "value": "no early mortalities"}, {"measurement": "Early mortalities", "setting": "[4]; 35 mg/kg daily in diet, 11 weeks", "value": "no early mortalities"}, {"measurement": "Tolerability of test article", "setting": "[4]; 35 mg/kg daily in diet, 11 weeks, HFD rabbits", "value": "tolerated the test article throughout the study"}, {"measurement": "Stage 3 bridging fibrosis in liver (FIG. 1)", "setting": "[4]; 35 mg/kg daily oral for 11 weeks, histology, picrosirius red", "value": "lack of Stage 3 bridging fibrosis"}, {"measurement": "Platelets compared with HFD control group", "setting": "[4]; Day 77, 35 mg/kg, HFD rabbits", "value": "lower"}, {"measurement": "Globulins", "setting": "[4]; Index at Day 77 (head), 35 mg/kg dose daily in diet 11 weeks, HFD rabbits, P 0.004", "value": "1.3 ± 0.7", "unit": "G/dl"}, {"measurement": "Cholesterol", "setting": "[4]; Index at Day 77 (head), 35 mg/kg dose daily in diet 11 weeks, HFD rabbits, plasma, P 0.024", "value": "2516 ± 746", "unit": "mg/dL"}, {"measurement": "Liver Fibrosis Stage", "setting": "[4]; Index at Day 77 (head), 35 mg/kg dose, n = 8, stage score 0-4, P 0.016", "value": "2.3 ± 0.5"}, {"measurement": "Significant log10 reduction vs nontreated controls: Monocyte chemoattractant protein 1 (MCP-1)", "setting": "[5]; 6.7 μM", "value": "−0.18", "unit": "log10"}, {"measurement": "Significant log10 reduction vs nontreated controls: Monocyte chemoattractant protein 1 (MCP-1)", "setting": "[5]; 20.0 μM", "value": "−0.15", "unit": "log10"}]}]}
